Reference: patent US7244861B2, “Benzene compound and salt thereof” (Eisai Co., Ltd., priority 2001, dated 2007)

What was measured:
Assay in all cases: Measurement of transcriptional activity, GAL4-PPAR LBD chimera / PLAP reporter in CV-1 cells
Type in all cases: cell-based
[1] = biological target: T1, PPAR α (Homo sapiens, UniProt Q07869); details: PLAP activity secreted 24 hours after addition of the compound, read-out: Transcriptional activities EC50 PPAR α
T1 construct: human PPAR 167–468 (PPAR); expressed in transfected cells; host or cells: CV-1 (ATCC CCL-70)
T1 sequence (Q07869 167-468): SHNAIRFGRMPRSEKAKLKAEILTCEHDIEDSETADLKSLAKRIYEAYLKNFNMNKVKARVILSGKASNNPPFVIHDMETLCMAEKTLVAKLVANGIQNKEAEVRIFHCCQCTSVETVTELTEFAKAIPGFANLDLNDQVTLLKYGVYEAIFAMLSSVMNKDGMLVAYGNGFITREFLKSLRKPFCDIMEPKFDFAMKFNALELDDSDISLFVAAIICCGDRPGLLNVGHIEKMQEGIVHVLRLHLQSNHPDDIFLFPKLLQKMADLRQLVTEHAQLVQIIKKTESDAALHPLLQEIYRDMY
Excerpt: (§1) Measurement of Transcriptional Activity
(§2) A GAL4-PPAR LBD chimera expression vector was constructed by ligating human PPAR 167–468 (PPAR), 138–440 (NUC-1) and 174–475 (PPAR) amino acid regions (LBD: Ligand Binding Domain) to a yeast transcriptional factor GAL4 1–147 amino acid region. As the reporter gene, PLAP (Placental Alkaline Phosphatase) was used, and this was ligated downstream of a TK promoter containing a 5-copy GAL4 DNA binding element to construct a vector. As host cells, CV-1 (ATCC CCL-70) was used. That is, CV-1 cells were spread at a density of 5×10^5 cells on a 35-mm dish and cultured in 10% FCS/DMEM for 24 hours, and using FuGENE 6 transfection reagent, the cells were co-transfected with the GAL4-PPAR LBD expression vector and GAL4 DBD-TK-PLAP expression vector. 24 hours after this transfection, the cells were spread again on a 96-well plate at a density of 1×10^4/well and further cultured for 24 hours. After 24 hours, the medium was exchanged with DMEM containing 10% FCS, which was previously treated at 65° C. for inactivating intrinsic alkaline phosphatase, and a test compound was added at an arbitrary concentration. The transcriptional activity was determined in terms of PLAP activity secreted 24 hours after addition of the compound, to calculate EC50. The PLAP activity was determined after adding 50 μl assay buffer and 50 μl chemoluminescence substrate to 10 μl culture supernatant and incubating the mixture at room temperature for 1 hour. The transcriptional activities for PPARα, PPARβ(δ) and PPARγ are shown respectively in Table 1.

[2] = biological target: T2, PPAR β (Homo sapiens, UniProt Q03181); details: PLAP activity secreted 24 hours after addition of the compound, read-out: Transcriptional activities EC50 PPAR β
T2 construct: 138–440 (NUC-1); expressed in transfected cells; host or cells: CV-1 (ATCC CCL-70)
T2 sequence (Q03181 138-440): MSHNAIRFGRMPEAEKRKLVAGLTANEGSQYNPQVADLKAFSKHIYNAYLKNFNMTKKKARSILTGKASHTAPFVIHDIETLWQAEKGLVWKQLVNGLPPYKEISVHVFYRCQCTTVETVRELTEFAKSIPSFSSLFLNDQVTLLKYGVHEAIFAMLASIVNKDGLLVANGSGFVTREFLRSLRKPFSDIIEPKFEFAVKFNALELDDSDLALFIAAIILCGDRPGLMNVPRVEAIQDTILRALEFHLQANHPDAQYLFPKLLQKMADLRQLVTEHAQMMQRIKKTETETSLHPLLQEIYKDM
Excerpt: as §1, §2

[3] = biological target: T3, PPAR γ (Homo sapiens, UniProt P37231); details: PLAP activity secreted 24 hours after addition of the compound, read-out: Transcriptional activities EC50 PPAR γ
T3 construct: 174–475 (PPAR) amino acid regions; expressed in transfected cells; host or cells: CV-1 (ATCC CCL-70)
T3 sequence (P37231 174-475 isoform P37231-2): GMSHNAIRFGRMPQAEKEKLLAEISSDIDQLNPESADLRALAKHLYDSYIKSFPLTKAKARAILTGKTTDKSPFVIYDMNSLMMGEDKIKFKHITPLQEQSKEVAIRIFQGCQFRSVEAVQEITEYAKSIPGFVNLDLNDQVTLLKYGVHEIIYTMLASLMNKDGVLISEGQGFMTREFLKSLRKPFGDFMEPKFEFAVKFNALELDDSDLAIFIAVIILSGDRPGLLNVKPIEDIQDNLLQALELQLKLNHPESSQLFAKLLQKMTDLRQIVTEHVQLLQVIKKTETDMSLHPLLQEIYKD
Excerpt: as §1, §2

Work on `COc1ccc(CC(OC(C)C)C(=O)O)c(OC)c1CNC(=O)c1ccc(OC2CCCC2)cc1Cl` (stereo not drawn) [Example 11, 3-(3-[(2-Chloro-4-cyclopentyloxybenzoyl)amino]methyl-2,4-dimethoxyphenyl)-2-isopropoxypropionic acid] yielded an EC50 [1] of 10.8 nM, an EC50 [2] of 1000 nM and an EC50 [3] of 5.8 nM.
For `CC(C)OC(Cc1cc(CNC(=O)c2ccc(C(F)(F)F)cc2F)c2occc2c1)C(=O)O` (stereo not drawn) [Example 35], the EC50 [1] was 66.5 nM, the EC50 [2] was 483 nM and the EC50 [3] was 52.4 nM.
Work on `CC(C)Oc1ccc(C(=O)NCc2cc(CC(OC(C)C)C(=O)O)cc3c2OCC3)c(Cl)c1` (stereo not drawn) [Example 42, 3-(7-[(2-Chloro-4-isopropoxybenzoyl)amino]methyl-2,3-dihydrobenzo[b]furan-5-yl)-2-isopropoxypropionic acid] yielded an EC50 [1] of 17.9 nM, an EC50 [2] of 1600 nM and an EC50 [3] of 3.4 nM.
